Measured values: article PMC10485095, “Structure and enzymatic characterization of CelD endoglucanase from the anaerobic fungus Piromyces finnis” (Applied Microbiology and Biotechnology, 2023)

Biological target: T1, CelD GH5 catalytic domain (construct 91–452) (Piromyces finnis, UniProt A0A1Y1V643)
T1 construct: gene BCR36DRAFT_398243; third GH5 catalytic domain of 136 kDa three-GH5, double-dockerin CelD; E. coli BL21-Gold(DE3), pMCSG68; N-terminal His/Strep tag cut by TEV for crystallisation; two molecules per asymmetric unit
T1 sequence (A0A1Y1V643 entry or part of it E900A): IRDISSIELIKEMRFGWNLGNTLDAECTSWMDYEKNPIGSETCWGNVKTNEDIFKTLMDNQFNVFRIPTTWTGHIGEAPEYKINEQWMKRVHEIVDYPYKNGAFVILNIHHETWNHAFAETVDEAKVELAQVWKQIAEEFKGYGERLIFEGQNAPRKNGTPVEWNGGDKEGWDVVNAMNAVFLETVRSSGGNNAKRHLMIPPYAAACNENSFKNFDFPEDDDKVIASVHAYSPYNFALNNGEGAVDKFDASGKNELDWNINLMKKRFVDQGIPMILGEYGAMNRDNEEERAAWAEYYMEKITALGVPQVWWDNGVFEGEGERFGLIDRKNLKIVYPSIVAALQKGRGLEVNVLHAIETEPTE
Experiment: X-ray crystallography, co-crystal, […] Å
Format: binding
Conditions: inactive acid/base mutant; 10 mM cellotriose added; bound at -3, -2, -1 subsites of active site; 0.1 M sodium acetate, 24% PEG 6000, 16 °C

## OC[C@H]1O[C@@H](O[C@H]2[C@H](O)[C@@H](O)[C@H](O[C@H]3[C@H](O)[C@@H](O)C(O)O[C@@H]3CO)O[C@@H]2CO)[C@H](O)[C@@H](O)[C@@H]1O (stereo partly shown) [cellotriose]
  X-ray crystallography, co-crystal, 1.8 Å: The complex between the E154A mutant protein and cellotriose was formed by adding the ligand
